Results taken from PubChem BioAssay AID449762 (Southern Research Specialized Biocontainment Screening …, 2010).
Records with an inconclusive call do not appear.

Tested on: M. tuberculosis H37Rv growth inhibition, 7H9 media
Assay: M. tuberculosis growth inhibition, HTS (AID 449762);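 further: bacterial growth assessed after seven days of incubation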
Conditions: for IC90: measured here: IC90 growth inhibition

Row | Compound | IC50 [µM] | IC90 [µM]
1 | CN1/C(=C\C(=O)COC(=O)c2ccc([N+](=O)[O-])o2)C(C)(C)c2ccccc21 | 1.04 | 3.54
2 | O=C(COc1ccccc1)NNc1nc2ccccc2s1 | 48.4 | > 100
3 | CCOc1ccc(NC(=S)Nc2cc(-c3ccccc3)[nH]n2)cc1 | 92.6 | > 100
4 | Cc1ccc2nc(/N=C(\N)NC(=O)NC3CCCCC3)nc(C)c2c1 | 2.22 | 8.85
5 | Oc1ccc(/C=N/n2c3ccccc3c3ccccc32)cc1 |  | > 100
6 | O=C(O)c1ccccc1C(=O)NNc1ccc(Cl)cc1Cl |  | > 100
7 | CCOC(=O)[C@@H]1[C@H]2COc3cc(OC)ccc3[C@H]2N2C(=O)N(c3ccc(C(F)(F)F)cc3)C(=O)[C@]12C | 5.77 | 6.48
8 | CCOC(=O)CSc1ncc(OC)c(Sc2ccc(OC)cc2)n1 | 7.53 | 73.4
9 | Cc1ccnc(NC(=O)COc2ccc3c(c2)CCC3)c1 | 40.2 | > 100
10 | COc1ccccc1C1CCN(Cc2ccc3ccccc3c2)CC1 | 15.7 | 21.8
11 | N#Cc1ccc(OCC(O)CN2CCN(c3ncc(C(F)(F)F)cc3Cl)CC2)cc1 (centres undefined) | 15.2 | 24
12 | C=CCNc1oc(-c2ccc(-c3ccccc3)cc2)nc1C#N | 12.2 | 13.7
13 | S=c1nc[nH]c2nc[nH]c12 | 3.08 | 3.43
14 | O=C(Nc1ccc(Cl)cc1)N1CCN(c2ccc3nnc(-c4ccc(F)cc4)n3n2)CC1 | 13.8 | 26.4
15 | COc1ccc(C2c3[nH]c4ccccc4c3CCN2Cc2cccn2-c2ncccn2)cc1C (centres undefined) | 25.2 | 28.9
16 | CCCCS(=O)(=O)/C=C\C=C/S(=O)(=O)CCCC | 1.35 | 1.96
17 | CCC(=O)NC(=S)Nc1ccc(NC(=O)COc2ccc(Cl)cc2Cl)cc1 | 88.1 | > 100
18 | C/C(=N\NC(N)=S)c1ccc(Cl)s1 | 12 | 17.7
19 | Cc1ccn2c(NC3CCCCC3)c(-c3cccc(-c4cccc(Cl)c4)c3)nc2c1 | 14.2 | 27
20 | CCOC(=O)c1ccc(NC(=O)CCc2nc(-c3ccc(Cl)cc3)no2)cc1 | 27.4 | > 100
21 | COc1cnc(-c2ccccn2)nc1Oc1ccc(Cl)c2ccccc12 | < 0.2 | 2.86
22 | Cc1ccccc1Nc1nc(N)nc(COC(=O)c2ccc([N+](=O)[O-])o2)n1 | 0.49 | 2.46

Row | Compound | IC50 [µM] | IC90 [µM]
23 | CC1CCCC(C)N1/N=C/c1c[nH]c2ccc(Br)cc12 (centres undefined) | 23.3 | 26.3
24 | CCOC(=O)c1sc2nc3n(c(=O)c2c1C)CCC(C)CC3 (centres undefined) | 17 | 39
25 | O=C1C(=O)c2ccccc2-c2ccccc21 | 6.31 | 6.91
26 | Cc1ccc(C2=NCCn3c2c2ccccc2[n+]3[O-])cc1 | 22.6 | 38.9
27 | COc1ccccc1N1CCN(c2ccc(-c3ccccc3)nn2)CC1 | 84.4 | > 100
28 | O=C(CCl)c1ccc2c(c1)CCN2C(=O)C1CCCCC1 | 16.7 | > 100
29 | C[N+](C)(CCCCCC[N+](C)(C)CCCN1C(=O)c2cccc3cccc(c23)C1=O)CCCN1C(=O)c2cccc3cccc(c23)C1=O | 2.59 | 3.72
30 | COc1ccc(OCC(=O)Nc2c(C(=O)N(CCN(C)C)Cc3ccco3)oc3ccccc23)cc1 | 24.8 | 27.5
31 | O=C(/C=C/c1ccco1)Nc1cccc(-c2nc3ccccc3[nH]2)c1 | 78.5 | > 100
32 | CCCCCC(=O)Nc1cccc2ccccc12 | 14.1 | > 100
33 | CCOC(=O)C(/C=C(\C#N)C(=O)OCC)=C(/N)N1CCN(c2ccc(Cl)cc2)CC1 | 18.5 | > 100
34 | Cc1nn(-c2ccccc2)c(N2CCCC2)c1/C=N/Nc1ccc(S(N)(=O)=O)cc1[N+](=O)[O-] |  | > 100
35 | CC(C)(C)c1ccc(Cn2c(=N)n(CC(O)c3ccco3)c3ccccc32)cc1 (centres undefined) | 17.6 | 22.2
36 | COCCCN=C1NN=C(c2cc(C)n(Cc3ccco3)c2C)CS1 | 60.9 | 87.4
37 | CN(CC(=O)Nc1ccccc1Br)C(=O)c1cccnc1Nc1cccc(C(F)(F)F)c1 | 32 | 40.7
38 | O=C(OCC(=O)N1CCN(C(=O)c2ccco2)CC1)c1cc(-c2cccc(Br)c2)nc2ccccc12 | 95.2 | > 100
39 | CNc1ccc2nc3ccccc3[n+](C)c2c1 | 1.29 | 2.34
40 | Cc1ccc2nc(-c3cccc(Br)c3)cc(C(=O)NC3=NCCS3)c2c1 | 14 | 28.9
41 | Cc1cccc(/C=C2/S/C(=N/N=C3\CC4CCC3(C)C4(C)C)NC2=O)c1 (centres undefined) | 7.92 | > 100
42 | Cc1cc(C)c2nc(-c3ccncc3)cc(C(=O)N3CCN(Cc4ccccc4Cl)CC3)c2c1 | 23.2 | 26.1
43 | Cc1nc2ccc(NC(=O)c3ccc([N+](=O)[O-])cc3[N+](=O)[O-])cc2s1 | 1.62 | 16.7
44 | Clc1ccc(CNc2nc(CN3CCOCC3)nc3scc(-c4ccccc4)c23)cc1 | 17.3 | 43.6

Row | Compound | IC50 [µM] | IC90 [µM]
45 | Cc1ccc(-c2c[n+](CC(=O)N3c4ccccc4Sc4ccccc43)c3n2CCC3)cc1 | 12.9 | 20.2
46 | CSc1ccc(NC(=O)Nc2cccn(Cc3ccccc3)c2=O)cc1 | 18.5 | > 100
47 | Cc1cccc2c1-c1sc(C(=O)Nc3ccccc3N3CCN(C)CC3)cc1CO2 | 17.9 | 25.1
48 | CCCCCCCCn1cnc2c(N)c(C)c(C)cc21 | 37.4 | 60
49 | N#CC(C#N)=C(N)CSc1cccc[n+]1[O-] | 6.25 | 11
50 | CCc1cccc2c(C(=O)CCl)c[nH]c12 | 0.78 | 3.18
51 | COc1cc2cc(C(c3nnnn3C(C)(C)C)N3CCc4ccccc43)c(=O)[nH]c2cc1OC (centres undefined) | 97.4 | > 100
52 | CC1CC(C)CN(C(=O)C2CCC(CNc3c(N4CCCCC4)c(=O)c3=O)CC2)C1 (centres undefined) | 19.3 | 71.7
53 | CCCOC(=O)CSc1nc(N2CCOCC2)c2c(c1C#N)CC(C)(C)OC2 | 21.8 | 37.4
54 | CN1CCN2c3ccccc3Cc3ccccc3C2C1 (centres undefined) | 42.8 | > 100
55 | Oc1ccc(N=Nc2n[nH]c(-c3ccc(Cl)cc3)n2)cc1 | 11.8 | 59
56 | CCCCCCCCSc1nnc(CSc2nc3nc(C)cc(C)n3n2)o1 | 1.05 | 8.29
57 | COc1ccc(C2c3[nH]c4ccccc4c3CCN2C(=O)c2cc3ncccn3n2)c(F)c1 (centres undefined) |  | > 100
58 | Cc1ccc(S(=O)(=O)n2ccc3c(OCCOCCNCc4ccc(F)cc4)cccc32)cc1 | 22.1 | 25.5
59 | Oc1cccc(-c2nc3ccc4ccccc4c3c3c2CCC3)c1 | 7.31 | 26.8
60 | COC(=O)c1c(NC(=O)CCl)sc(C(=O)N2CCOCC2)c1C | 2.19 | 5.65
61 | C=C1c2c(Cl)ccc(O)c2C(O)=C2C(=O)[C@]3(O)C(O)=C(C(N)=O)C(=O)[C@@H](N(C)C)[C@@H]3[C@@H](O)C12 (some centres undefined) | 1.06 | 4.88
62 | CCOc1ccc(-c2cc(C(=O)NCCCn3ccnc3)c3cc(Br)ccc3n2)cc1 | 24.1 | 27.4
63 | CCCCSCCCNC(=O)c1cn(CC)c2ccc(S(=O)(=O)N3CCOCC3)cc2c1=O | 23.7 | 44.9
64 | O=c1[nH]c(CN2CC=C(c3ccccc3)CC2)nc2cc(C(F)(F)F)ccc12 | 69.4 | 86
65 | CCc1ccc2[nH]c(=O)c(CN(CCCN3CCOCC3)C(=O)Nc3cccc(Cl)c3)cc2c1 | 24.1 | 30.4
66 | Cc1[nH]c2ccccc2c1C(=O)COC(=O)c1ccc([N+](=O)[O-])s1 | 0.59 | 2

Row | Compound | IC50 [µM] | IC90 [µM]
67 | C=CCc1cc(C)ccc1OCCCC(C(=O)OCC)C(=O)OCC | 9.72 | 21.4
68 | CCN1CCN(Cc2ccc(NC(=O)c3cc(NC(=O)c4cncc(-c5cccs5)c4)cc(OC)c3)cc2C(F)(F)F)CC1 | 10.2 | 14.6
69 | CCOc1ccc2nc(NC(=O)C34CC5CC(CC(NC(C)=O)(C5)C3)C4)sc2c1 | 17.8 | 28.4
70 | N#C/C(=C\c1ccc(-c2ccc(Br)cc2)o1)C(=O)NCCc1c[nH]c2ccccc12 | 96.1 | > 100
71 | CN(C)CCCN(C(=O)c1cc(-c2cccs2)nc2ccccc12)c1nc2ccc(F)cc2s1 | 41 | 55.5
72 | C/C(=N\NC(=O)CC(C)C)c1c(C(F)(F)F)[nH]n(-c2nc3ccccc3s2)c1=O | 42.4 | > 100
73 | O=C(CN1CCN(c2ccccc2O)CC1)Nc1ccccc1C(=O)NCCc1ccccc1 | 44.3 | 57.9
74 | CCCN(CC1CC1)C(=O)COC(=O)c1ccc2c(c1)C(=O)N(c1ccc(OCC)cc1)C2=O | 35.2 | > 100
75 | COC(=O)[C@H](CCSC)NC(=O)N1CCN(c2cccc(C(F)(F)F)c2)CC1 | 14.4 | 40.5
76 | Cc1ccc(-n2cccc2C(=S)N=P(N(C)C)(N(C)C)N(C)C)cc1 | 18.4 | 25.5
77 | Nc1nc(CN2CCN(c3ccccc3F)CC2)nc(N2CCCc3ccccc32)n1 | 4.99 | 14
78 | COc1cccc(/C=N/Nc2nc(Nc3ccccc3)nc(-n3nc(C)cc3C)n2)c1O | < 0.2 | < 0.2
79 | O=[N+]([O-])c1cc([N+](=O)[O-])c2cc3ccccc3nc2c1 | < 0.2 | 0.81
80 | Cc1occc1-c1nnc(SCC(=O)NCCc2ccccc2)o1 | 9.83 | 20
81 | CSc1cccc(CNC(=O)C2CCC(=O)N(Cc3cccc(C(F)(F)F)c3)C2)c1 (centres undefined) | 26.6 | 30.6
82 | CCCCCC(=O)NNC(=S)NC(=O)c1ccc([N+](=O)[O-])cc1 | 1.35 | 4.43
83 | CCOC(=O)COc1cc([N+](=O)[O-])cc2cccnc12 | 15.2 | 34.6
84 | Nc1ccc2c(c1)oc1ccccc12 |  | > 100
85 | O=C(Cc1ccccc1)N/N=C/c1ccc2cccc(O)c2n1 | 7.67 | 12.3
86 | COc1ccc(-c2oc3ccc(-c4ccc(OC)nc4)cc3c2C#CC2(O)CCCCC2)cc1 | 96.2 | > 100
87 | Cc1ccc2c(c1)c(/C=C/c1cc[n+](C)cc1)c(C)n2C | 5.13 | 6.8
